Measured values published in US20100029761A1, “NOVEL COMPOUNDS, PHARMACEUTICAL COMPOSITIONS CONTAINING SAME, AND METHODS OF USE FOR SAME” (priority 2005, published 2010).
Values after ≈ are worked out from the molar mass of the structure shown. Where two headings read alike, the source gives them in different places.

Tests used:
[1] = Weight loss, DIO; assay type: in vivo; conditions: 20 mg/kg
[2] = Weight loss screen; assay type: in vivo, Balb/C mice; conditions: 60 mg/kg intraperitoneally
Method: Balb/C mice (Jackson Labs) are utilized for the initial weight loss screening. Animals are housed in temperature and 12 hour day/night cycle rooms and fed mouse chow and water ad lib. Three mice are utilized for each compound tested with vehicle controls in triplicate per experiment. For the experiments, mice are housed separately for each compound tested three mice to a cage. Compounds are diluted in DMSO at 10 mg/ml and mice are injected intraperitoneally with 60 mg/kg in approximately 100 μl of DMSO or with vehicle alone. Mice are observed and weighed daily; average weights and standard errors are computed with Excel (Microsoft). The experiment continues until treated animals reach their pretreatment weights. Select compounds are tested in animals housed in metabolic cages. Dosing of animals are identical to the screening experiments with three animals to a single metabolic cage. Animal weights, water and food consumption, and urine and feces production are measured daily.

[3] = test system: Enterococcus faecalis (ATCC # 29212); assay: Broth microdilution MIC, E. faecalis; assay type: cell-based; conditions: for MIC: Enterococcus faecalis, ATCC29212
Method: (§1) A broth microdilution assay is used to assess the antimicrobial activity of the compounds. […] Microorganisms tested include Staphylococcus aureus (ATCC # 29213), Enterococcus faecalis (ATCC # 29212), Pseudomonas aeruginosa (ATCC # 27853), and Escherichia coli (ATCC # 25922). The assay is performed in two growth media, Mueller Hinton Broth and Trypticase Soy Broth. A blood (Tsoy/5% sheep blood) agar plate is inoculated from frozen stocks maintained in T soy broth containing 10% glycerol and incubated overnight at 37° C. Colonies are suspended in sterile broth so that the turbidity matches the turbidity of a 0.5 McFarland standard. The inoculum is diluted 1:10 in sterile broth (Mueller Hinton or Trypticase soy) and 195 ul is dispensed per well of a 96-well plate. The compounds to be tested, dissolved in DMSO, are added to the wells in 5 ul volume at the following concentrations: 25, 12.5, 6.25, 3.125, 1.56 and 0.78 ug/ml in duplicate. Additional concentrations are tested if required. 5 ul of DMSO added to duplicate wells are the vehicle control. Serial dilutions of positive control compounds, vancomycin (E. faecalis and S. aureus) and tobramycin (E. coli and P. aeruginosa), are included in each run. After 24 hours of incubation at 37° C., plates are read at OD600 on a Molecular Devices SpectraMax Plus Spectrophotometer. Average OD600 values are computed using SOFTmax Pro Software (Molecular Devices) and MIC values are determined by linear regression analysis using Prism version 3.02 (Graph Pad Software, San Diego). The MIC is defined as the concentration of compound required to produce an OD600 reading equivalent to 10% of the vehicle control reading.

[4] = test system: Pseudomonas aeruginosa (ATCC # 27853); assay: Broth microdilution MIC, P. aeruginosa; assay type: cell-based; conditions: for MIC: Pseudomonas aeruginosa, ATCC27853
Method: as §1

[5] = test system: Staphylococcus aureus (ATCC # 29213); assay: Broth microdilution MIC, S. aureus; assay type: cell-based; conditions: for MIC: Staphylococcus aureus, ATCC29213
Method: as §1

[6] = test system: Escherichia coli (ATCC # 25922); assay: Broth microdilution MIC, E. coli; assay type: cell-based; conditions: for Ecoli/MH (MIC): Mueller Hinton Broth; for Ecoli/Tsoy (MIC): Trypticase Soy Broth
Method: as §1

[7] = Trypticase Soy Broth, read-out: EF/Tsoy (MIC)
[8] = Trypticase Soy Broth, read-out: PSAE/Tsoy (MIC)
[9] = Mueller Hinton Broth, read-out: SA/MH (MIC)
[10] = Trypticase Soy Broth, read-out: SA/Tsoy (MIC)
[11] = Mueller Hinton Broth, read-out: PSAE/MH (MIC)

MIC [3, 7] [µg/mL]	EF/MH (MIC) ([3]; Mueller Hinton Broth)	PSAE/MH (MIC) ([4]; Mueller Hinton Broth)	MIC [4, 8] [µg/mL]	MIC [5, 9] [µg/mL]	MIC [5, 10] [µg/mL]	Ecoli/MH (MIC) [6]	Ecoli/Tsoy (MIC) [6]	MIC [4, 11] [µg/mL]	SA/MH (MIC) ([5]; Mueller Hinton Broth)	SA/Tsoy (MIC) ([5]; Trypticase Soy Broth)	MIC ([3]; Mueller Hinton Broth, read-out: EF/MH (MIC)) [µg/mL]	Structure (SMILES)	Weight Loss DIO ([1]; day 3)	Weight Loss ([2]; day 4)	Weight Loss DIO ([1]; day 2)	Weight Loss ([2]; day 1, printed with + sign)
42 (≈ 148 µM)	Neg	Neg	103 (≈ 362 µM)	32 (≈ 113 µM)	25 (≈ 87.9 µM)	Neg	Neg	–	–	–	–	CCCCCCCCC1OC(=O)C(=O)C1C(=O)OCC (stereo not drawn) [Compound 1]	DIO: 20 mg/kg: 4.6% (day 3)	60 mg/kg: 9.7% (day 4)	–	–
163 (≈ 714 µM)	Neg	–	210 (≈ 920 µM)	–	–	Neg	Neg	155 (≈ 679 µM)	Neg	Neg	–	CCCCC1OC(=O)C(O)=C1C(=O)OCC (stereo not drawn) [Compound 2]	–	60 mg/kg: 12.3% (day 4)	DIO: 20 mg/kg: 3.0% (day 2)	–
135 (≈ 364 µM)	–	–	186 (≈ 502 µM)	150 (≈ 405 µM)	146 (≈ 394 µM)	–	–	173 (≈ 467 µM)	–	–	100 (≈ 270 µM)	CCCCCCCCC1OC(=O)C(OCC(=O)OCC)=C1C(=O)OCC (stereo not drawn) [Compound 3]	–	–	–	60 mg/kg: +1.8% (day 1)
